According to publication PMC6482291, “Anticonvulsant Activity of Pterostilbene in Zebrafish and Mouse Acute Seizure Tests” (Neurochemical Research, 2019):

Experiments:
mice [1] = assay: Forced swim test; format: in vivo; details: IMI 20 mg/kg ip; p < 0.05
Experimental: The forced swim test was carried out according to the method described by Porsolt et al. to assess antidepressant properties of PTE. Mice were placed individually in a glass cylinder (25 cm high; 10 cm diameter) containing tap water to a depth of 11 cm. Water was maintained at temperature of 23–25 °C. Mice were permitted to swim for 6 min and duration of their immobility was recorded during the last 4 min of the test by a trained experimenter who was blinded to the treatment. Immobility time was recorded using cumulative stopwatches. Mouse was considered to be immobile when it was floating in the water without struggling and making no attempts to escape, it was making only these movements necessary to keep its head above the water. After each trial, the water in the cylinder was replaced with fresh water. Experimental groups consisted of 10 animals.
Data obtained in the forced swim test were expressed as the mean (in s) + SEM immobility time in each experimental group. Results were analyzed by one-way ANOVA.

[2] = tested on: 6 Hz psychomotor seizures in mice; set-up: method as in PMID 27600732; details: cited from earlier work
rats = tested on: rats; set-up: method as in PMID 24717328; details: acute and chronic administration; cited from earlier work
MES seizures in mice = tested on: MES seizures in mice; set-up: method as in PMID 27600732; details: cited from earlier work
[3] = tested on: PTZ-induced seizures in rats; details: PTZ test in rats; cited from earlier work
[4] = tested on: 6 Hz-induced psychomotor seizures in mice; assay: 6 Hz psychomotor seizure threshold test; format: in vivo; details: VPA 50 mg/kg ip, 15 min before test; 95% confidence limits in brackets
Text: Psychomotor (limbic) seizures were induced by transcorneal stimulation (6 Hz, 0.2 ms rectangular pulse, 3 s duration) generated by a Grass S48 stimulator coupled with a constant current unit CCU1 (both from Grass Technologies, West Warwick, RI, USA). Before stimulation a drop of ocular anesthetic, 1% tetracaine hydrochloride solution, was applied into the animals’ corneas. The electrodes were soaked in saline to ensure the good electrical contact. During the stimulation animals were restrained manually and immediately after the stimulation were placed in a Plexiglas box for observation of presence or absence of the psychomotor seizures. These seizures were characterized by immobilization or stun, often associated with rearing, forelimb clonus, twitching of vibrissae and elevated tail (Straub-tail), lasting at least 10 s from the stimulation. Lack of the above symptoms or their cessation within 10 s from the stimulation was considered as absence of seizure activity.
In the present study two 6 Hz-induced psychomotor seizure tests were performed: (1) the 6 Hz psychomotor seizure threshold test which employed stimulation at varied current intensities, and (2) the 6 Hz psychomotor seizure test with supramaximal stimulation at 32 mA and 44 mA.
In the 6 Hz psychomotor seizures threshold test, threshold current intensity (CS50 in mA) was estimated in groups of 20 animals according to the above mentioned up-and-down method.

[5] = tested on: PTZ-induced seizures in mice; assay: Timed iv PTZ seizure threshold test in mice; format: in vivo; details: VPA 150 mg/kg ip, 15 min before test
Experimental: Each mice was placed in the cylindrical restrainer and the needle (27G, 3/4 in., Sterican®, B. Braun Melsungen AG, Melsungen, Germany) was injected into the lateral tail vein. The needle was attached by the polyethylene drain (PE20RW, Plastic One Inc. Roanoke, VA, USA) with the syringe containing 1% solution of PTZ (Sigma–Aldrich, St. Louis, MO, USA) in water and the syringe was located in the infuse pomp (model Physio 22, Hugo Sachs Elektronik–Harvard Apparatus GmbH, March-Hugstetten, Germany). The correct placement of the needle in the vein was confirmed based on the presence of the blood in the drain and the needle was protected against displacement by a peace of adhesive tape. Following injection, mice were took out from the restrainer and placed in the Plexiglas box for observation. The PTZ solution was infused into the vein at a constant rate of 0.2 ml/min. The time intervals from the start of infusion of PTZ solution to the beginning of three kinds of seizures, i.e., the first myoclonic twitch, generalized clonus with loss of the righting reflex and forelimb tonic extension, were noted. Infusion of PTZ solution was stopped immediately after onset of the tonic seizures, which usually were lethal. If animal survived the test, it was euthanized immediately. The threshold dose of PTZ (in mg/kg body weight) for each kind of seizures was calculated according to the following formula: PTZmg/kg=infusion durations×infusion rateml/s×PTZ concentrationmg/ml/weightkg
Experimental groups consisted of 9–13 animals. The data obtained in the iv PTZ test are presented as the threshold dose of PTZ (in mg/kg) + standard error of the mean (SEM) needed to elicit the respective kind of seizures. The data were analyzed by one-way ANOVA followed by the Tukey’s multiple comparison test. Statistical significance was noted when p values were equal or lower than 0.05.

mice [6] = assay: Grip-strength test; format: in vivo; details: 15 min before test
Experimental: The acute effect of PTE on the skeletal muscles strength in mice was determined in the grip strength test. The apparatus for this test (BioSeb, Chaville, France) consisted of a steel wire grid (8 × 8 cm) connected to an isometric force transducer. Each mouse was lifted by tail and allowed to grasp the grid with its forepaws and then it was gently pulled backward until its released the grid. The maximal force in newtons (N) exerted by mouse before leaving the grid was recorded. The mean of three consecutive measurements for each animal was calculated and normalized to body weight (mN/g).
Experimental groups consisted of 12 animals. Results obtained in the grip-strength test were compared using one-way ANOVA followed by the Tukey’s post-hoc multiple comparison test.

mice [7] = assay: Chimney test; format: in vivo; details: 15 min before test
Experimental: The chimney test was performed to evaluate influence of PTE on motor coordination in mice. During the test mice had to climb backwards up the plastic transparent cylinder (inner diameter 3 cm and length 30 cm) with gravelly inside. The inability of mice to escape from the cylinder within 60 s was considered as an motor impairment. Results obtained in the test were presented as percent of impaired mice in groups of 10–12 animals and were compared with the Fisher’s exact probability test.

[8] = tested on: maximal electroshock seizures in mice; assay: Maximal electroshock seizure threshold (MEST) test; format: in vivo; details: VPA 150 mg/kg ip
Text: Seizures in the MEST test were evoked by applying a sine-wave alternating current (maximal output voltage 500 V, 50 Hz for 0.2 s) generated by constant current stimulator (Rodent Shocker, Type 221, Hugo Sachs Elektronik, Freiburg, Germany). The stimulation was delivered by saline-socked transcorneal electrodes. Before the stimulation 1% solution of tetracaine hydrochloride was applied into animals’ eyes for local anesthesia. During the stimulation animals were restrained manually and immediately after the stimulation they were placed in the Plexiglas box for observation. The endpoint evaluated in the test was the maximal electroconvulsion which was defined as extension of the hindlimbs above a 90° angle to the torso of animal.
The threshold for maximal electroshock was determined according to the up-and-down method described by Kimball et al.. The mice in the experimental group were subjected to the stimuli with different current intensities (range of 8–30 mA) which changes in 0.06-log steps. If stimulated mouse respond with seizures, the next mouse in the group was stimulated with current of intensity 0.06-log step lower than the previous one. […] Groups of 20 stimulated animals were used to calculate the threshold current strength (CS50 in mA; the current strength which induces tonic hindlimb extension in 50% of the tested animals) with SEM.
CS50 values were compared with one-way ANOVA followed by the Tukey’s multiple comparison test.

Q: Which “immobility time vs control” value (mice [1]) does the source give for CN(C)CCCN1c2ccccc2CCc2ccccc21 [IMI, imipramine, reference compound] here?
A: Statistically significant difference

Q: Which “anticonvulsant activity in the 6 Hz psychomotor seizure test” value [2] does the source give for Oc1ccc(/C=C/c2cc(O)cc(O)c2)cc1 [RES, resveratrol] here?
A: showed significant anticonvulsant activity neither in the MES nor 6 Hz psychomotor seizure tests

Q: And the “immobility time in the forced swim test” value (rats)?
A: decreased immobility time

Q: And the “anticonvulsant activity in the MES test” value (MES seizures in mice)?
A: showed significant anticonvulsant activity neither in the MES nor 6 Hz psychomotor seizure tests

Q: And the “duration of clonic seizures” value [3]?
A: reduced the duration

Q: What about the “incidence of the generalized tonic-clonic seizures” value [3] of the same compound?
A: decreased incidence

Q: Which results are given for CCCC(CCC)C(=O)O [VPA, valproic acid, reference compound]?
A: CS50 (psychomotor seizure threshold) [4]: 15.97 (15.13–16.85) mA; threshold for the first myoclonic twitch vs negative control ([5]; p < 0.001): Statistically significant increases; increase of threshold for generalized clonic seizures vs negative control ([5]; p < 0.01): over 45%; threshold for tonic forelimb extension vs negative control ([5]; p < 0.01): Statistically significant increase; Neuromuscular strength (mice [6]; VPA 50 mg/kg ip): 31.12 ± 1.20 mN/g; Neuromuscular strength (mice [6]; VPA 150 mg/kg ip): 25.36 ± 0.92 mN/g; Impairment of motor coordination (percentage of animals) (mice [7]; VPA 50 mg/kg ip): 0%; Impairment of motor coordination (percentage of animals) (mice [7]; VPA 150 mg/kg ip): 0%; CS50 (seizure threshold) ([8]; 15 min before test, 95% confidence limits in brackets): 14.13 (13.27–15.04) mA; increase of seizure threshold vs negative control ([8]; p < 0.001): ~ 49%
